Measurements: US5089494A, “4-phenylphthalazine derivatives which inhibit platelet aggregation” (Mitsubishi Kasei Corporation, priority 1990, dated 1992)

Assays:
platelet aggregation [1] = assay: Platelet aggregation-inhibitory activity in vitro (collagen-induced, rat platelet rich plasma); format: cell-based; settings: for inhibition at 0.3 µM: 3 × 10^-7 M; for inhibition at 0.3 µM / inhibition at 0.1 µM / inhibition at 1 µM: read-out: in vitro Inhibitory ratio
Protocol: Platelet aggregation-inhibitory activity in vitro
Rat arterial blood was centrifuged to obtain platelet rich plasma.
Platelet aggregation inhibitory ratio was calculated by the following formula: [formula] Tc: Aggregation degree where only a solvent was added. Ts: Aggregation degree where a solution of the test compound was added.

platelet aggregation [2] = assay: Platelet aggregation inhibitory activity ex vivo (by oral administration); format: in vivo, male Wistar ST rats; settings: 1 hour, collagen 7 to 10 μg/ml, rat
Protocol: Platelet aggregation inhibitory activity ex vivo (by oral administration)
A group of 8 male Wistar ST rats each weighing about 250 grams were used. To the test animal was orally administered 4 ml/kg of a solution made by suspending a test compound in 1% aqueous tragacanth solution, and one hour later blood was collected from common carotid artery with a cannula. […] The residue was further centrifuged by […] for 15 minutes and the supernatant was recovered as poor platelet plasma (PPP). The plasma samples were used for assaying the platelet aggregating ability.
As an aggregation inducer, 7 to 10 μg/ml of collagen (Hormon-Chemie) was used.
Platelet Aggregation-inhibitory ratio was calculated by the following formula: [formula] A: Aggregating ratio of the group (control) in which only 1% aqueous tragacanth solution was administered.
B: Aggregating ratio of the group in which a solution of the test compound in tragacanth solution was administered.

[3] = test system: rat left coronary artery ligation-induced cardiac infarction; assay: Activity to rat left coronary artery ligation-induced cardiac infarction; format: in vivo, male SD rats; settings: 60 minutes prior to ligation
Description: Activity of the compounds (I) to rat left coronary artery ligation-induced cardiac infarction
A group of 8 male SD rats weighing 200 to 250 g were used. The rats were fixed at the dosal position under light ether paralysis, subjected to longitudinal incission in about 1.5 cm along the sternal left line to make thoractonomy under breaking the heart sac and exposing the heart. After ligating the left main coronary artery at 1 to 2 mm from the origin with black blade silk suture (Hama Ika Kogyo, 4-0), the heart was returned at the original position and the breast was closed immediately. The bilateral breast was pressed to exclude the air in the thoracic cavity to resume respiration. […] Twenty-four hours after ligation, the blood was collected from the ventral vena cava, and the rat was killed by complete bleeding. The heart was taken out, and the cross circular slice (about 2 mm) at the central part of the heart was incubated at 37° C. in the dark for 20 minutes in 20 ml of 1% solution of TTC (tryphenyl tetrazolium chloride, Wako Junyaku) in 0.09 M phosphate buffer (pH 8.6). The slice was photographed under a stereoscopic microscope, and the colored slides were prepared therefrom. The slides were projected on the wall, and the sections, the infarction parts (TTC non-dyed part) and non-infarction parts (TTC dyed part), were traced. So, the area of the infarction part in the total section area was calculated. A solution made by suspending the test compound in 1% aqueous tragacanth solution was orally administered 60 minutes prior to the coronary artery ligation. [formula] A: Infarction ratio where only 1% tragacanth solution was administered for control.
B: Infarction ratio where the tragacanth solution containing the test compound was administered.

Row | Structure (SMILES) | inhibition at 0.1 µM (platelet aggregation [1]; 10^-7 M) | inhibition at 1 µM (platelet aggregation [1]; 10^-6 M) | further results
1 | COc1ccc(C(C)Nc2nnc(-c3ccccc3)c3ccccc23)cc1 (racemic) [69 (DL)] | 21% | – | inhibition at 0.3 µM (platelet aggregation [1]): 74.7%
2 | COc1ccc(C(C)Nc2nnc(-c3ccccc3)c3ccccc23)cc1OC (racemic) [78 (DL)] | 6.2% | – | inhibition at 0.3 µM (platelet aggregation [1]): 93.6%
3 | CC(Nc1nnc(-c2ccccc2)c2ccccc12)c1cccc(C(F)(F)F)c1 (racemic) [92 (DL)] | 1.5% | 89.5% | –
4 | Cc1ccccc1C(C)Nc1nnc(-c2ccccc2)c2ccccc12 (racemic) [58 (DL)] | 89.9% | – | –
5 | CCc1ccc(C(C)Nc2nnc(-c3ccccc3)c3ccccc23)cc1 (racemic) [59 (DL)] | 56.5% | – | –
6 | CCCC(Nc1nnc(-c2ccccc2)c2ccccc12)c1ccccc1 (racemic) [3 (DL)] | 65.9% | – | inhibition at 0.3 µM (platelet aggregation [1]): 96.8%
7 | COc1ccccc1C(C)Nc1nnc(-c2ccccc2)c2ccccc12 (racemic) [73 (DL)] | 93.3% | – | –
8 | CC(Nc1nnc(-c2ccc(Cl)cc2)c2ccccc12)c1ccccc1 (racemic) [34 (DL)] | – | 100% | –
9 | CC(Nc1nnc(-c2ccccc2)c2ccccc12)c1cccc(Cl)c1 (racemic) [81 (DL)] | 40.7% | 98.3% | ex vivo Inhibitory ratio (p.o.) (platelet aggregation [2]; 10 mg/kg p.o.): 72.5%
10 | Cc1cccc(C(C)(C)Nc2nnc(-c3ccccc3)c3ccccc23)c1 [compound 167] | 100% | 100% | –
11 | Cc1ccc(C(C)Nc2nnc(-c3ccccc3)c3ccccc23)cc1 (racemic) [56 (DL)] | 92.9% | – | –
12 | COc1cccc(C(C)Nc2nnc(-c3ccccc3)c3ccccc23)c1 (racemic) [72 (DL)] | 14.9% | 94.8% | –
13 | CC(Nc1nnc(-c2ccccc2)c2ccccc12)c1ccc(F)cc1 (racemic) [85 (DL)] | 10.2% | – | inhibition at 0.3 µM (platelet aggregation [1]): 94.1%
14 | C[C@@H](Nc1nnc(-c2ccccc2)c2ccccc12)c1ccccc1 [1 (D), D-1-α-methylbenzylamino-4-phenylphthalazine] | – | – | ex vivo Inhibitory ratio (p.o.) (platelet aggregation [2]; 1 mg/kg p.o.): 65.5%; ex vivo Inhibitory ratio (p.o.) (platelet aggregation [2]; 3 mg/kg p.o.): 80.2%; ex vivo Inhibitory ratio (p.o.) (platelet aggregation [2]; 10 mg/kg p.o.): 88.5%; Cardiac infarction inhibitory ratio ([3]; 2 mg/kg p.o.): 81.1%; Cardiac infarction inhibitory ratio ([3]; 10 mg/kg p.o.): 76.6%; in vitro Inhibitory ratio (platelet aggregation [1]; 10^-6 M, 1 µM): 100%; in vitro Inhibitory ratio (platelet aggregation [1]; 10^-7 M, 0.1 µM): 100%
15 | CC(Nc1nnc(-c2ccccc2)c2ccccc12)c1ccccc1 (racemic) [1 (DL)] | 72.2% | 84% | ex vivo Inhibitory ratio (p.o.) (platelet aggregation [2]; 1 mg/kg p.o.): 76.2%; ex vivo Inhibitory ratio (p.o.) (platelet aggregation [2]; 3 mg/kg p.o.): 79.8%
16 | Cc1cccc(C(C)Nc2nnc(-c3ccccc3)c3ccccc23)c1 (racemic) [57 (DL)] | 90.3% | – | ex vivo Inhibitory ratio (p.o.) (platelet aggregation [2]; 1 mg/kg p.o.): 61.8%
17 | CCCCC(Nc1nnc(-c2ccccc2)c2ccccc12)c1ccccc1 (racemic) [5 (DL)] | 20.6% | 98.4% | –

Row | Structure (SMILES) | inhibition at 0.1 µM (platelet aggregation [1]; 10^-7 M) | inhibition at 1 µM (platelet aggregation [1]; 10^-6 M) | further results
18 | CC(Nc1nnc(-c2ccccc2)c2ccccc12)c1ccccc1F (racemic) [87 (DL)] | – | 52.4% | –
19 | CC(Nc1nnc(-c2ccccc2)c2ccccc12)c1cccc(F)c1 (racemic) [86 (DL)] | – | 100% | ex vivo Inhibitory ratio (p.o.) (platelet aggregation [2]; 1 mg/kg p.o.): 40.5%
20 | CCC(Nc1nnc(-c2ccccc2)c2ccccc12)c1ccccc1 (racemic) [2 (DL)] | 100% | 96.4% | ex vivo Inhibitory ratio (p.o.) (platelet aggregation [2]; 1 mg/kg p.o.): 37.8%; ex vivo Inhibitory ratio (p.o.) (platelet aggregation [2]; 3 mg/kg p.o.): 52.3%; ex vivo Inhibitory ratio (p.o.) (platelet aggregation [2]; 10 mg/kg p.o.): 94.5%
21 | CC(C)(Nc1nnc(-c2ccccc2)c2ccccc12)c1ccccc1 [Compound No. 119, 1-α,α-dimethylbenzylamino-4-phenylphthalazine] | 93% | – | –
22 | CC(Cc1ccccc1)Nc1nnc(-c2ccccc2)c2ccccc12 (centres unmarked) [Control 4, reference compound] | – | 7.1% | –
23 | CC(=O)Oc1ccccc1C(=O)O [Aspirin, reference compound] | – | – | Cardiac infarction inhibitory ratio ([3]; 100 mg/kg p.o.): 10.7%
24 | c1ccc(-c2nnc(NC3(c4ccccc4)CCCCC3)c3ccccc23)cc1 [compound 136] | 94.7% | – | –
25 | CC(C)(C)C(Nc1nnc(-c2ccccc2)c2ccccc12)c1ccccc1 (racemic) [8 (DL)] | 100% | 100% | ex vivo Inhibitory ratio (p.o.) (platelet aggregation [2]; 1 mg/kg p.o.): 22.0%; ex vivo Inhibitory ratio (p.o.) (platelet aggregation [2]; 3 mg/kg p.o.): 35.1%; ex vivo Inhibitory ratio (p.o.) (platelet aggregation [2]; 10 mg/kg p.o.): 69.9%
26 | CC(Nc1nnc(-c2ccccc2)c2ccccc12)c1ccc(Cl)cc1 (racemic) [80 (DL)] | 26.3% | – | inhibition at 0.3 µM (platelet aggregation [1]): 93.3%
27 | CC(Nc1nnc(-c2ccccc2)c2ccccc12)c1ccc2c(c1)OCO2 (racemic) [79 (DL)] | 6.3% | – | inhibition at 0.3 µM (platelet aggregation [1]): 95.3%
28 | CC(Nc1nnc(-c2ccccc2)c2ccccc12)c1ccccc1Cl (racemic) [82 (DL)] | – | 65.5% | inhibition at 0.3 µM (platelet aggregation [1]): 58.5%
29 | CC(C)C(Nc1nnc(-c2ccccc2)c2ccccc12)c1ccccc1 (racemic) [4 (DL)] | 49.3% | 96.6% | –
30 | CC(Nc1nnc(-c2ccccc2)c2ccccc12)c1ccc(C(F)(F)F)cc1 (racemic) [91 (DL)] | – | 22.5% | –
31 | Clc1ccccc1CN1CCc2sccc2C1 [Ticlopidine, reference compound] | – | – | Cardiac infarction inhibitory ratio ([3]; 30 mg/kg p.o.): 10.1%
32 | Cc1ccc(C(C)(C)Nc2nnc(-c3ccccc3)c3ccccc23)cc1 [compound 166] | 100% | 100% | –
33 | c1ccc(CCCNc2nnc(-c3ccccc3)c3ccccc23)cc1 [Control 3, reference compound] | 12.6% | 40.7% | –
